Data published in the supplement of paper PMC10307832.

What was measured:
Experiment in all cases: relative viability (nuclei count vs DMSO), 5 days (fraction); higher = more cells survive
[1] = compound: C1=CC(=CC=C1NC(=S)NNC2=C(C=C(C=C2[N+](=O)[O-])C(F)(F)F)[N+](=O)[O-])F [Kobe2602] + CC(=O)c1c(C)c2cnc(Nc3ccc(N4CCNCC4)cn3)nc2n(C2CCCC2)c1=O [Palbociclib] (partner 0.5 µM)
Procedure, shortened: (§1)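 Relative viability divides the nuclei count in treated wells by that in vehicle wells. Lung cancer cell lines were seeded in 1536-well plates, dosed by pin tool the next day, and fixed and stained after 5 days in one step with final 0.05% Triton X-100, 1% formaldehyde and 1 ug/ml Hoechst. Dosing was a single drug or a fixed anchor-drug dose plus five library-drug doses (not always all listed) in √10 steps, and values are medians of duplicate plates imaged at 4×.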

[2] = compound: COc1cc2nccc(Oc3ccc(NC(=O)C4(C(=O)Nc5ccc(F)cc5)CC4)cc3)c2cc1OC [Cabozantinib] + N=C(N)NC(=N)NCCc1ccccc1 [Phenformin] (partner 250 µM)
Procedure, shortened: as §1

[3] = compound: COc1cc2nccc(Oc3ccc(NC(=O)C4(C(=O)Nc5ccc(F)cc5)CC4)cc3)c2cc1OC [Cabozantinib] + O=C(c1cc(Cc2n[nH]c(=O)c3ccccc23)ccc1F)N1CCN(C(=O)C2CC2)CC1 [Olaparib] (partner 8 µM)
Procedure, shortened: as §1

[4] = compound: O[C@@H](COc1cccc2ncccc12)CN1CCN([C@@H]2c3ccccc3[C@@H]3[C@H](c4ccccc42)C3(F)F)CC1 [Zosuquidar] + N=C(N)NC(=N)NCCc1ccccc1 [Phenformin] (partner 250 µM)
Procedure, shortened: as §1

Row | Cell Line | relative viability ([1]; first compound 0.2 µM) | relative viability ([1]; first compound 0.6325 µM) | relative viability ([1]; first compound 2 µM) | relative viability ([1]; first compound 6.325 µM) | relative viability ([1]; first compound 20 µM) | relative viability ([2]; first compound 0.02 µM) | relative viability ([2]; first compound 0.06325 µM) | relative viability ([2]; first compound 0.2 µM) | relative viability ([2]; first compound 0.6325 µM) | relative viability ([2]; first compound 2 µM) | relative viability ([3]; first compound 0.02 µM) | relative viability ([3]; first compound 0.06325 µM) | relative viability ([3]; first compound 0.2 µM) | relative viability ([3]; first compound 0.6325 µM) | relative viability ([3]; first compound 2 µM) | relative viability ([4]; first compound 0.01 µM) | relative viability ([4]; first compound 0.03162 µM) | relative viability ([4]; first compound 0.1 µM) | relative viability ([4]; first compound 0.3162 µM) | relative viability ([4]; first compound 1 µM)
1 | SK-LU-1 | 0.396 | 0.402 | 0.338 | 0.428 | 0.459 | 0.587 | 0.791 | 0.552 | 0.476 | 0.438 | 0.605 | 0.559 | 0.488 | 0.437 | 0.38 | 0.547 | 0.522 | 0.531 | 0.632 | 0.557
2 | NCI-H2126 | 0.379 | 0.357 | 0.343 | 0.346 | 0.35 | 0.443 | 0.555 | 0.539 | 0.544 | 0.586 | 0.937 | 0.932 | 0.865 | 0.938 | 0.946 | 0.544 | 0.542 | – | 0.539 | 0.532
3 | LXF-289 | 0.585 | 0.597 | 0.59 | 0.556 | 0.62 | 0.524 | 0.544 | 0.5 | 0.508 | 0.493 | 1.13 | 1.22 | 1.06 | 0.979 | 1.07 | 0.52 | 0.502 | 0.484 | 0.543 | 0.5
4 | BEN | 0.502 | 0.497 | 0.481 | 0.483 | 0.443 | 0.251 | 0.259 | 0.284 | 0.268 | 0.274 | 1.16 | 1.18 | 1.23 | 1.01 | 0.764 | 0.268 | 0.245 | 0.263 | 0.265 | 0.26
5 | LCLC-97TM1 | 0.192 | 0.242 | – | 0.218 | 0.194 | 0.229 | 0.461 | 0.5 | 0.431 | 0.45 | 0.483 | 0.492 | 0.332 | 0.342 | 0.407 | 0.409 | 0.442 | 0.46 | 0.454 | 0.445
